Reference: patent EP4692094A1 (Beijing Konruns Pharmaceutical Co., Ltd., priority 2023, dated 2024)

How the values were obtained:
[1] = Assay for plasma protein binding rate (equilibrium dialysis), mouse plasma; format: in vitro ADME; conditions: dialysis 6 h at 37 °C, read-out: Mouse (Fu%)
Description: (§1) 1.1 Preparation of compounds: The compounds prepared in the examples were each dissolved in dimethylsulfoxide to give solutions at a concentration of 10 mmol/L. • 1) The example compounds were each diluted from 10 mmol/L stock solution to 0.2 mmol/L, i.e., 1 µL of the compound was added to 49 µL of DMSO; • 2) 3 µL of 0.2 mmol/L test compounds were added to 597 µL of blood plasma, and the mixtures were vortexed at 1000 rpm for 2 min; • 3) 50 µL of the plasma containing the drug in 2) was taken, 50 µL of PBS was added, and 300 µL of methanol internal standard* was added to serve as a sample T0; • 4) 120 µL of the plasma containing the drug in 2) was taken and added to one side of an HTD device membrane, and 120 µL of PBS was added to the other side of the membrane; a breathable film was covered, and the plasma and the residual sample in 2) were balanced at 37 °C (100 rpm and 5% CO2) for 6 h; • 5) 50 µL of the dialyzed plasma side sample was taken, 50 µL of PBS was added, and 300 µL of methanol internal standard* was added to serve as a sample P; • 6) 50 µL of the dialyzed PBS side sample was taken, 50 µL of blank plasma was added, and 300 µL of methanol internal standard* was added to serve as a sample B; • 7) 50 µL of the plasma containing the drug in 2) was taken, 50 µL of PBS was added, and 300 µL of methanol internal standard* was added to serve as a sample T6; • 8) All samples were vortexed, mixed homogeneously, and then centrifuged at 3220 g for 40 min at 4 °C; • 9) 100 µL of the supernatant and 100 µL of purified water were mixed homogenously for liquid chromatography-mass spectrometry.
(§2) An internal standard method was used, and the plasma protein binding rate, recovery rate, and residual percentage were calculated by using Excel according to the ratio of the peak area of the sample to the peak area of the internal standard. Free rate(%) = (RatioB)/(RatioP) × 100% [formula] Binding rate(%) = 100%−Free rate% [formula] Recovery rate(%) = (RatioB + RatioP)/(RatioT0) × 100% [formula] Remaining percentage(%) = (RatioT6)/(RatioT0) × 100% [formula]
(§3) RatioB: a ratio of the peak area of the test substance on the PBS side to the peak area of the internal standard; RatioP: a ratio of the peak area of the test substance on the plasma side to the peak area of the internal standard; RatioT6: a ratio of the peak area of the sample after incubation with the test substance for 6 h to the peak area of the internal standard; RatioT0: a ratio of the peak area of the sample after incubation with the test substance for 0 h to the peak area of the internal standard. Table 8. Plasma protein binding rate (Fu%) data for various species of example compounds

[2] = Assay for plasma protein binding rate (equilibrium dialysis), human plasma; format: in vitro ADME; conditions: dialysis 6 h at 37 °C, read-out: Human (Fu%)
Description: as §1, §2, §3

KAT6A = target: T1, KAT6A (Homo sapiens, UniProt Q92794); test: Enzymatic activity assay for KAT6A acetyltransferase (TR-FRET, acetylation of histone substrate H3); format: biochemical
T1 construct: purchased active motife (Active Motif) 81223
T1 sequence (Q92794 whole entry): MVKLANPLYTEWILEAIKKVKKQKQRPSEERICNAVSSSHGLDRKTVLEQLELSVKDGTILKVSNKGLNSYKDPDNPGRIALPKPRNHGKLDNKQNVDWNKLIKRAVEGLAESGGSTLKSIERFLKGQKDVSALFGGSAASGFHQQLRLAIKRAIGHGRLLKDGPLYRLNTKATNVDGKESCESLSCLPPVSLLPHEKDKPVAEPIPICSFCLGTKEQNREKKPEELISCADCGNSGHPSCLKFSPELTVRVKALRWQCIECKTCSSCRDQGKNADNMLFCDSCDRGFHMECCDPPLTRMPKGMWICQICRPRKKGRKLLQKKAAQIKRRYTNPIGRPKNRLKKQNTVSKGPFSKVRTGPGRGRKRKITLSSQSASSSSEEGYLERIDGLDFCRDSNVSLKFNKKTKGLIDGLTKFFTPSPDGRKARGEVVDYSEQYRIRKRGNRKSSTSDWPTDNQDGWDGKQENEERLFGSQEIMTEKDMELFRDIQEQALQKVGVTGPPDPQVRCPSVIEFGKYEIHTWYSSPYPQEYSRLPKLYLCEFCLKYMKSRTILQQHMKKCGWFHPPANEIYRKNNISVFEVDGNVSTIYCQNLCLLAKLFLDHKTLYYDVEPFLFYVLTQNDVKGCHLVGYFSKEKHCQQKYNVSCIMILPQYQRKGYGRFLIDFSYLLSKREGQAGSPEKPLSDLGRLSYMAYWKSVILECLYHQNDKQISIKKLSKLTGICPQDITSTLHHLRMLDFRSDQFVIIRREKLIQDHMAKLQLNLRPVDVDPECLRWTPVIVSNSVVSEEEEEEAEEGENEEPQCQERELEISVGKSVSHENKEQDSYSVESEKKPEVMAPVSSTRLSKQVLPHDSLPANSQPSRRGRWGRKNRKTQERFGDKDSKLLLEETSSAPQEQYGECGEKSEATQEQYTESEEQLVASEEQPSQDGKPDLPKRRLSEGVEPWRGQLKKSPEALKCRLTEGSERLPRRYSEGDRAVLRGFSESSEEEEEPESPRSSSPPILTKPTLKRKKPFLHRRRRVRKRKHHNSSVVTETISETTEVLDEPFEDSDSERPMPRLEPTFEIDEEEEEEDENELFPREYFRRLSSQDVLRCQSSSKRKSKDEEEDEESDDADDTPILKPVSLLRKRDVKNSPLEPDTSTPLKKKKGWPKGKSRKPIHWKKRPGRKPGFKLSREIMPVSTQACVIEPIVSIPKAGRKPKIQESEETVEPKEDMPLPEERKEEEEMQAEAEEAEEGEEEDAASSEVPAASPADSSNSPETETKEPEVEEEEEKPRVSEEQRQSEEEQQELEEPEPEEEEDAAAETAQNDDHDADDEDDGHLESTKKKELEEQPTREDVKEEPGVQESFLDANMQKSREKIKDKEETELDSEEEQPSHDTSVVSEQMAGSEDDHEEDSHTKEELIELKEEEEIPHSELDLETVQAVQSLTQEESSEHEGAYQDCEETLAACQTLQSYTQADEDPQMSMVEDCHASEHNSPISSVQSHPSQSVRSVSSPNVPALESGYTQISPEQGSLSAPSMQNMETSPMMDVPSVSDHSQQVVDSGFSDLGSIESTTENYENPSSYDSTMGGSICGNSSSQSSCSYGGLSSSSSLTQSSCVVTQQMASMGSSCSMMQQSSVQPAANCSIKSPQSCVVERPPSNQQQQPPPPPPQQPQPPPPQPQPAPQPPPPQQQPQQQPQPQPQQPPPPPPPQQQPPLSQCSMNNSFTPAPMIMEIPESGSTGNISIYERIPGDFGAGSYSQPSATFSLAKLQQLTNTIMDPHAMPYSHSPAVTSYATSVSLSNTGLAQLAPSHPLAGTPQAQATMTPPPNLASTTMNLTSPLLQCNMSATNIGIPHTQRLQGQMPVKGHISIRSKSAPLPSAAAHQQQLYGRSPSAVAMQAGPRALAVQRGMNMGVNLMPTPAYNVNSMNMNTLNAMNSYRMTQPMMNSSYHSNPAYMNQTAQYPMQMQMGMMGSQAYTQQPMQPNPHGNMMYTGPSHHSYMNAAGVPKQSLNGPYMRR
Outline: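 TR-FRET detection of biotinylated H3 acetylation by KAT6A with acetyl-CoA; compounds in 10-point 3-fold dilution (0.5% DMSO final) preincubated with enzyme 10 min at 25 °C, then 90 min reaction and 60 min Eu-antibody/ULight-SA detection at 25 °C. HTRF 665/615 ratio normalised to DMSO (0%) and top-dose control (100%); IC50 by nonlinear fit.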

[3] = Assay for plasma protein binding rate (equilibrium dialysis), rat plasma; format: in vitro ADME; conditions: dialysis 6 h at 37 °C, read-out: Rat (Fu%)
Description: as §1, §2, §3

[4] = Assay for plasma protein binding rate (equilibrium dialysis), dog plasma; format: in vitro ADME; conditions: dialysis 6 h at 37 °C, read-out: Dog (Fu%)
Description: as §1, §2, §3

[5] = In-vivo pharmacokinetic study in rats; set-up: species or system SD female rats; conditions: female, SD, rat, plasma, po, intragastric administration, 5 mg/kg; for AUC(0-t): read-out: AUC0-24h
Description: 1.1 Instrument: high-performance liquid chromatograph: SHIMADZU LC-30AD; mass spectrum: AB SCIEX mass spectrometer Triple Quad 5500; all measured data were calculated and processed using Microsoft Excel, and relevant pharmacokinetic parameters were calculated using WinNonlin software. The main obtained kinetic parameters are Tmax, T1/2, Cmax, AUC0-24 h, and AUCinf. […] Sample injection amount: 1 µL.
1.2 Animals: three SD female rats were used. The body weight range was 180-300 g. After purchase, the rats were bred in the experimental animal center for two days for later use. The rats were fasted 12 h before administration and 4 h after administration, and given ad libitum access to water during the assay. Blood samples were taken at predetermined time points after intragastric administration.
1.3 Vehicle: 0.5% HPMC (hydroxypropyl methylcellulose) + 0.4% Tween80 + 99.1% water. Preparation of intragastric administration solution: The compound was precisely weighed, the vehicle was added, and then the drug was completely dissolved by ultrasonication at room temperature for 5 min and prepared into a 0.5 mg/mL solution. After the intragastric administration, blood samples were taken at 0.083 h, 0.25 h, 0.5 h, 1.0 h, 2.0 h, 4.0 h, 7.0 h, and 24 h. The blood collection mode is as follows: 0.2 mL of the jugular vein blood was collected, EDTA-K2 was used as an anticoagulation agent, the collected blood sample was transferred into a microcentrifuge tube containing the anticoagulation agent, and the tube was centrifuged at 4 °C and 4000 g for 5 min to separate the plasma. All plasma samples collected were stored at -75±15 °C until analysis.
The compound was precisely weighed and prepared into a standard curve working solution and a quality control working solution at different concentrations. The blank plasma was added and prepared into a plasma standard curve and a quality control sample. LC/MS/MS analysis was performed after pretreatment using a protein precipitation method, and then the concentration of the compounds described above in the plasma was measured. All measured data were collected and processed by the relevant software, and pharmacokinetic parameters were calculated using Winnonlin software. Table 9. Pharmacokinetic parameters of some compounds in the examples in rats

**Q.** With `COc1nc(Cn2cccn2)cc2onc(NS(=O)(=O)c3cccc4c3OCO4)c12` [Example 28, N-(6-((1H-Pyrazol-1-yl)methyl)-4-methoxyisoxazolo[4,5-c]pyridin-3-yl)-1,3-benzodioxole-4-sulfonamide] as the compound, how does the fraction unbound at 6 h, 1 µM [1] read?
**A.** 0.0205

**Q.** And the fraction unbound at 6 h, 1 µM [2]?
**A.** 0.0086

**Q.** What about the IC50 (KAT6A) of the same compound?
**A.** 3.55 nM

**Q.** Which results are given for `COc1cc2ccoc2cc1S(=O)(=O)Nc1noc2cc(Cn3cccn3)nc(OC)c12` [Example 44, N-(6-((1H-Pyrazol-1-yl)methyl)-4-methoxyisoxazolo[4,5-c]pyridin-3-yl)-5-methoxybenzofuran-6-sulfonamide]?
**A.** fraction unbound at 6 h, 1 µM [3]: 0.0176; fraction unbound at 6 h, 1 µM [1]: 0.048; fraction unbound at 6 h, 1 µM [2]: 0.0149; fraction unbound at 6 h, 1 µM [4]: 0.0023; IC50 (KAT6A): 8.28 nM

**Q.** With `COc1ccc2occc2c1S(=O)(=O)Nc1noc2cc(Cn3cccn3)nc(OC)c12` [Example 45, N-(6-((1H-Pyrazol-1-yl)methyl)-4-methoxyisoxazolo[4,5-c]pyridin-3-yl)-5-methoxybenzofuran-4-sulfonamide] as the compound, how does the fraction unbound at 6 h, 1 µM [1] read?
**A.** 0.0145

**Q.** And the fraction unbound at 6 h, 1 µM [2]?
**A.** 0.0066

**Q.** What about the IC50 (KAT6A) of the same compound?
**A.** 9.45 nM

**Q.** With `COc1cc2c(cc1S(=O)(=O)Nc1noc3cc(Cn4cccn4)nc(OC)c13)OCO2` [Example 57, N-(6-((1H-Pyrazol-1-yl)methyl)-4-methoxyisoxazolo[4,5-c]pyridin-3-yl)-6-methoxy-1,3-benzodioxole-5-sulfonamide] as the compound, how does the fraction unbound at 6 h, 1 µM [1] read?
**A.** 0.0565

**Q.** What about the fraction unbound at 6 h, 1 µM [2] of the same compound?
**A.** 0.0264

**Q.** And the IC50 (KAT6A)?
**A.** 0.95 nM

**Q.** For `COc1cc2c(cc1S(=O)(=O)Nc1noc3cc(Cn4cccn4)nc(OC)c13)CCO2` [Example 60, N-(6-((1H-Pyrazol-1-yl)methyl)-4-methoxyisoxazolo[4,5-c]pyridin-3-yl)-6-methoxy-2,3-dihvdrobenzofuran-5-sulfonamide], which fraction unbound at 6 h, 1 µM [3] is on record?
**A.** 0.0516

**Q.** What about the AUC(0-inf) [5] of the same compound?
**A.** 26700 ng·h/mL

**Q.** What about the Cmax [5] of the same compound?
**A.** 2310 ng/mL

**Q.** And the Tmax [5]?
**A.** 2.67 h

**Q.** And the AUC(0-t) [5]?
**A.** 26200 ng·h/mL

**Q.** What about the fraction unbound at 6 h, 1 µM [1] of the same compound?
**A.** 0.0358

**Q.** What about the fraction unbound at 6 h, 1 µM [2] of the same compound?
**A.** 0.0175

**Q.** What about the fraction unbound at 6 h, 1 µM [4] of the same compound?
**A.** 0.0345

**Q.** And the IC50 (KAT6A)?
**A.** 1.01 nM

**Q.** For `COc1cc2cccnc2cc1S(=O)(=O)Nc1noc2cc(Cn3cccn3)nc(OC)c12` [Example 75, N-(6-((1H-Pyrazol-1-yl)methyl)-4-methoxyisoxazolo[4,5-c]pyridin-3-yl)-6-methoxyquinoline-7-sulfonamide], which AUC(0-inf) [5] is on record?
**A.** 30600 ng·h/mL

**Q.** And the Cmax [5]?
**A.** 10800 ng/mL

**Q.** What about the Tmax [5] of the same compound?
**A.** 0.25 h

**Q.** What about the AUC(0-t) [5] of the same compound?
**A.** 30600 ng·h/mL

**Q.** What about the fraction unbound at 6 h, 1 µM [1] of the same compound?
**A.** 0.0163

**Q.** And the fraction unbound at 6 h, 1 µM [2]?
**A.** 0.0091

**Q.** What about the IC50 (KAT6A) of the same compound?
**A.** 2.41 nM
